Experimental data published in patent US20090221596A1, “Substtituted aryl oximes” (priority 2006, published 2009).

How the values were obtained:
Type in all cases: in vivo
[1] = system: Spodoptera frugiperda; assay: Spodoptera frugiperda test (spray treatment); details: foliar, 168 h, 500 g a. i./ha, 7 d, sprayed maize leaf discs, army worm caterpillars, read-out: % 7 d (activity; 100% = all caterpillars killed)
Description: An appropriate preparation of active compound is produced by mixing 1 part by weight of active compound with the stated amounts of solvent and emulsifier and diluting the concentrate to the desired concentration using emulsifier-containing water.
Maize leaf discs (Zea mays) are sprayed with a preparation of active compound at the desired concentration and after they have dried off they are populated with caterpillars of the army worm (Spodoptera frugiperda).
After the desired time the activity is measured in %. Here 100% means that all of the caterpillars have been killed; 0% means that no caterpillar has been killed.

[2] = system: Phaedon cochleariae; assay: Phaedon test (spray treatment); details: 500 g a. i./ha, sprayed Chinese cabbage leaves, mustard beetle larvae
Description: [table] An appropriate preparation of active compound is produced by mixing 1 part by weight of active compound with the stated amounts of solvent and emulsifier and diluting the concentrate to the desired concentration using emulsifier-containing water. Chinese cabbage leaves (Brassica pekinensis) are sprayed with a preparation of active compound at the desired concentration and after they have dried off they are populated with larvae of the mustard beetle (Phaedon cochleariae). After the desired time the activity is measured in %.

[3] = system: Aedes Aegypti; assay: Aedes Aegypti test; details: 20 g a. i./ha, third larval stage (L3)
Procedure: An appropriate preparation of active compound is produced by mixing the active compound with the stated amounts of solvent and diluting the concentrate to the desired concentration with water.
The Aedsae aegypti larvae (third larval stage, L3) are treated with a preparation of active compound at the desired concentration.
After the desired time the activity is measured in %. Here 100%, means that all of the Aedsae aegypti have been killed; 0% means that no Aedsae aegypti have been killed, and -1 denotes that no evaluation was possible.

SMILES	pest or weed control at 500 g/ha [1]	% 7 d (activity; 100% = all beetle larvae killed) [2]	% 2 d (activity; 100% = all Aedes aegypti killed) [3]
COc1c(Cl)cc(OCC=C(Cl)Cl)cc1/C(C)=N/OCCOc1ccc(C(F)(F)F)cn1 [Example 21]	100%	–	–
COc1c(Cl)cc(OCC=C(Cl)Cl)cc1/C(C)=N/OC(C)c1ccccc1 (centres unmarked) [Example 45]	83%	–	–
COc1c(Cl)cc(OCC=C(Cl)Cl)cc1/C(C)=N/OCCCCOc1ncc(C(F)(F)F)cc1Cl [Example 23]	100%	–	–
COc1c(Cl)cc(OCC=C(Cl)Cl)cc1/C(C)=N/OCCc1ccc(NC(=O)C2(C)CC2)cc1 [Example 40]	100%	–	–
COc1c(Cl)cc(OCC=C(Cl)Cl)cc1/C(C)=N/OCCCCOc1c(Cl)cc(C(F)(F)F)cc1Cl [Example 24]	100%	–	–
COc1c(Cl)cc(OCC=C(Cl)Cl)cc1/C(C)=N/OCc1ccc(F)c(Oc2ccccc2)c1 [Example 30]	100%	–	–
COc1c(Cl)cc(OCC=C(Cl)Cl)cc1/C(C)=N/OCc1ccc(Oc2ccc(SC)cc2)cc1 [Example 49]	100%	–	–
COc1c(Cl)cc(OCC=C(Cl)Cl)cc1/C(C)=N/OCCc1ccc([N+](=O)[O-])cc1 [Example 39]	100%	–	–
COc1c(Cl)cc(OCC=C(Cl)Cl)cc1/C(C)=N/OCc1ccc(OC(F)(F)F)cc1 [Example 29]	100%	–	–
COc1c(Cl)cc(OCC=C(Cl)Cl)cc1C(=NO)C(C)C (racemic) [Example 14, 1-[3-Chloro-5-(3,3-dichloroallyloxy)-2-methoxyphenyl]-2-methylpropan-1-one oxime]	–	100%	80%
COc1c(Cl)cc(OCC=C(Cl)Cl)cc1/C(C)=N/OCCc1ccc(NC(=O)OC(C)(C)C)cc1 [Example 41]	100%	–	–
COc1c(Cl)cc(OCC=C(Cl)Cl)cc1/C(C)=N/OCCCCOc1ccc(C(F)(F)F)cn1 [Example 22]	100%	–	–
COc1c(Cl)cc(OCC=C(Cl)Cl)cc1/C(C)=N/OCCCc1ccc(F)cc1 [Example 42]	100%	–	–
